Key:
human Cat L = human Cat L (Homo sapiens (Human), UniProt P07711); experiment: Cathepsin enzyme inhibition assay (fluorogenic peptide substrate), human Cat L; format: biochemical; conditions: human Cat L 1 nM, substrate Z-Val-Val-Arg-AMC 20 μM, pH 6.5
Method: (§1) Cathepsin Enzyme Inhibition Assay
(§2) Enzyme activity is measured by observing the increase in fluorescence intensity caused by cleavage of a peptide substrate containing a fluorophore whose emission is quenched in the intact peptide.
(§3) Assay buffer: 100 mM potassium phosphate pH 6.5, EDTA-Na 5 mM, Triton X-100 0.001%, DTT 5 mM.
(§4) Enzymes (all at 1 nM): human and mouse Cathepsin S, Cat K, Cat B, Cat L.
(§5) Substrate (20 μM): Z-Val-Val-Arg-AMC, except for Cat K which uses Z-Leu-Arg-AMC (both from Bachem).
(§6) AMC=7-Amino-4-Methyl-Coumarin.
(§7) Excitation 360 nm, Emission 465 nm.
(§8) Enzyme is added to the substance dilutions in 96-well microtitre plates and the reaction is started with substrate. […] IC50 are calculated by standard methods.
(§9) Inhibition of human Cat S, mouse Cat S, human Cat K, human Cat B, human Cat L and mouse Cat L have been measured separately.

human Cathepsin S = human Cathepsin S (Homo sapiens (Human), UniProt P25774); experiment: Cathepsin enzyme inhibition assay (fluorogenic peptide substrate), human Cat S; format: biochemical; conditions: human Cat S 1 nM, substrate Z-Val-Val-Arg-AMC 20 μM, pH 6.5
Method: as §1, §2, §3, §4, §5, §6, §7, §8, §9

Chain of human Cat L (P07711 114-333): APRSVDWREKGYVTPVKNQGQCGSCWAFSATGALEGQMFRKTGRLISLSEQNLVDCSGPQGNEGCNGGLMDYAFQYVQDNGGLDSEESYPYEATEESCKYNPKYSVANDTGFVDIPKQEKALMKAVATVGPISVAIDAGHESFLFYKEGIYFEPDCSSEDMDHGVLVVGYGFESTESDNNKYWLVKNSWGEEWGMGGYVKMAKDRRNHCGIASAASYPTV
Chain of human Cathepsin S (P25774 115-331): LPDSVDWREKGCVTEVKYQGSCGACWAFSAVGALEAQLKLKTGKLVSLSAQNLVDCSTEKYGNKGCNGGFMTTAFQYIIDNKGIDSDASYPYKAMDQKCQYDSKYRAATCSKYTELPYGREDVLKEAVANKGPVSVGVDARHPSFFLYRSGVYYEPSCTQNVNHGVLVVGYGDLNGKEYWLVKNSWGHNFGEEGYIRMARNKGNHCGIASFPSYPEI

| Compound | IC50 (human Cat L) [nM] | IC50 (human Cathepsin S) [nM] |
| --- | --- | --- |
| N#CC1(NC(=O)[C@@H]2C[C@@H](S(=O)(=O)c3ccc(F)cc3Cl)CN2C(=O)C2(c3ncc(Cl)cc3F)CC2)CC1 [Example 11, (2S,4R)-1-(1-(5-chloro-3-fluoropyridin-2-yl)cyclopropanecarbonyl)-4-(2-chloro-4-fluorophenylsulfonyl)-N-(1-cyanocyclopropyl)pyrrolidine-2-carboxamide] | 89.8 | 0.602 |
| N#CC1(NC(=O)[C@@H]2C[C@H](S(=O)(=O)c3ccc(F)cc3Cl)CN2C(=O)C2(c3ncc(Cl)cc3F)CC2)CC1 [Example 15, (2S,4S)-4-(2-Chloro-4-fluoro-benzenesulfonyl)-1-[1-(5-chloro-3-fluoro-pyridin-2-yl)-cyclopropanecarbonyl]-pyrrolidine-2-carboxylic acid (1-cyano-cyclopropyl)-amide] | 1680 | 11.1 |
| N#CC1(NC(=O)[C@@H]2C[C@@H](S(=O)(=O)c3ccccn3)CN2C(=O)C2(c3ncc(Cl)cc3F)CC2)CC1 [Example 18, (2S,4R)-1-[1-(5-Chloro-3-fluoro-pyridin-2-yl)-cyclopropanecarbonyl]-4-(pyridine-2-sulfonyl)-pyrrolidine-2-carboxylic acid (1-cyano-cyclopropyl)-amide] | 3430 | 4.24 |
| N#CC1(NC(=O)[C@@H]2C[C@@H](S(=O)(=O)c3ccccc3-n3cncn3)CN2C(=O)C2(c3ncc(Cl)cc3F)CC2)CC1 [Example 48, (2S,4R)-1-[1-(5-Chloro-3-fluoro-pyridin-2-yl)-cyclopropanecarbonyl]-4-(2-[1,2,4]triazol-1-yl-benzenesulfonyl)-pyrrolidine-2-carboxylic acid (1-cyano-cyclopropyl)-amide] | 21100 | 58.5 |
| N#CC1(NC(=O)[C@@H]2C[C@@H](S(=O)(=O)c3ccccc3Cl)CN2C(=O)C2(c3ncc(Cl)cc3F)CC2)CC1 [Example 5, (2S,4R)-4-(2-Chloro-benzenesulfonyl)-1-[1-(5-chloro-3-fluoro-pyridin-2-yl)-cyclopropanecarbonyl]-pyrrolidine-2-carboxylic acid (1-cyano-cyclopropyl)-amide] | 12.9 | 0.398 |
| N#CC1(NC(=O)[C@@H]2C[C@@H](Sc3cccc(-c4ccc(F)cc4)c3)CN2C(=O)C2(c3ncc(Cl)cc3F)CC2)CC1 [Example 9, (2S,4R)-1-[1-(5-Chloro-3-fluoro-pyridin-2-yl)-cyclopropanecarbonyl]-4-(4′-fluorobiphenyl-3-ylsulfanyl)-pyrrolidine-2-carboxylic acid (1-cyano-cyclopropyl)-amide] | 416 | 11.8 |

More lines, in order of falling IC50 (human Cat L), values ahead:

| IC50 (human Cat L) [nM] | IC50 (human Cathepsin S) [nM] | Compound |
| --- | --- | --- |
| 410 | 0.606 | COc1ccc(S(=O)(=O)[C@@H]2C[C@@H](C(=O)NC3(C#N)CC3)N(C(=O)C3(c4ccc(Cl)cn4)CC3)C2)c(Cl)c1 [Example 1, (2S,4R)-4-(2-Chloro-4-methoxy-benzenesulfonyl)-1-[1-(5-chloro-pyridin-2-yl)-cyclopropanecarbonyl]-pyrrolidine-2-carboxylic acid (1-cyano-cyclopropyl)-amide] |
| 3.2 | 0.678 | Cn1cc(-c2ccc(S(=O)(=O)[C@@H]3C[C@@H](C(=O)NC4(C#N)CC4)N(C(=O)C4(c5ncc(I)cc5F)CC4)C3)c(Cl)c2)cn1 [Example 38, (2S,4R)-4-[2-Chloro-4-(1-methyl-1H-pyrazol-4-yl)-benzenesulfonyl]-1-[1-(3-fluoro-5-iodo-pyridin-2-yl)-cyclopropanecarbonyl]-pyrrolidine-2-carboxylic acid (1-cyano-cyclopropyl)-amide] |

From patent publication US9409882B2, “Pyridine derivatives” (Hoffmann-La Roche Inc., priority 2012, dated 2016)
